According to ChEMBL document CHEMBL1909046, “DrugMatrix in vitro pharmacology data”:

Tests used:
[1] = DRUGMATRIX: ATPase, Na+/K+ enzyme inhibition (substrate: ATP); type: tissue-based, Sus scrofa, Heart; details: Not Active = under 50% inhibition at 10 µM
Glucocorticoid receptor = target: T1, Glucocorticoid receptor (Homo sapiens, UniProt P04150); details: hela s3; further: in other assays of this panel Not Active means under 50% inhibition at 10 µM
T1 sequence (P04150 whole entry): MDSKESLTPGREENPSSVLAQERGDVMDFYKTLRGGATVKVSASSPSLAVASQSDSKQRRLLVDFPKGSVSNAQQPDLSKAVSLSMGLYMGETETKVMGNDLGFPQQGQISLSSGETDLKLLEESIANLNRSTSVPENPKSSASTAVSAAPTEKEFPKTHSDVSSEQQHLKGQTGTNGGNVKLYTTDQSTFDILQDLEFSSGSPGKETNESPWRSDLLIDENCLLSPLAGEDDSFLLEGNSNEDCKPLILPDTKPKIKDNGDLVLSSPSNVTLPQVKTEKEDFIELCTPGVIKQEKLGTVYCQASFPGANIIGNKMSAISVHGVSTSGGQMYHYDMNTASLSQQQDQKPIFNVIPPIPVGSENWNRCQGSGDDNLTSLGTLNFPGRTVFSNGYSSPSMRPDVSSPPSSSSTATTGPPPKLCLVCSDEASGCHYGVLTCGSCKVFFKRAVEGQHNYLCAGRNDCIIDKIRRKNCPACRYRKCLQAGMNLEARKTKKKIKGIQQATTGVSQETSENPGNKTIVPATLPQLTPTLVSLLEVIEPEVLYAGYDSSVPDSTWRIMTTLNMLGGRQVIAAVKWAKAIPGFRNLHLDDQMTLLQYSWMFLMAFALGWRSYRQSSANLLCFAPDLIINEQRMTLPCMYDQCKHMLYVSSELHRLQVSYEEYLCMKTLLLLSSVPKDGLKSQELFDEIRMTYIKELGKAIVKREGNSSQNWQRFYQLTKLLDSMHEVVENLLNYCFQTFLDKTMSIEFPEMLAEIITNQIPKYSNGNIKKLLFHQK

[2] = DRUGMATRIX: Sodium/nucleoside co-transporter radioligand binding (ligand: nitrobenzylthioinosine); type: cell membranes, Cavia porcellus, Dunkin-Hartley, Cerebral cortex, Membrane; details: Not Active = under 50% inhibition at 10 µM
[3] = DRUGMATRIX: beta-Lactamase enzyme inhibition (substrate: Nitrocefin); parameters: species or system Bacillus cereus; details: Not Active = under 50% inhibition at 10 µM
[4] = DRUGMATRIX: Glutamate, AMPA radioligand binding (ligand: [3H] AMPA); type: cell membranes, Rattus norvegicus, Wistar, Cerebral cortex, Membrane; details: Not Active = under 50% inhibition at 10 µM
[5] = DRUGMATRIX: Phorbol Ester radioligand binding (ligand: [3H] PDBu); type: cell membranes, Mus musculus, ICR, Brain, Membrane; details: Not Active = under 50% inhibition at 10 µM
[6] = DRUGMATRIX: Glutamate, Kainate radioligand binding (ligand: [3H] Kainic acid); type: cell membranes, Rattus norvegicus, Wistar, Brain, Membrane; details: Not Active = under 50% inhibition at 10 µM
[7] = target: T2, Alpha-1B adrenergic receptor (Rattus norvegicus, UniProt P15823); test: DRUGMATRIX: Alpha-1B adrenergic receptor radioligand binding (ligand: prazosin); type: cell membranes, Wistar, Liver, Membrane; details: Not Active = under 50% inhibition at 10 µM
T2 sequence (P15823 whole entry): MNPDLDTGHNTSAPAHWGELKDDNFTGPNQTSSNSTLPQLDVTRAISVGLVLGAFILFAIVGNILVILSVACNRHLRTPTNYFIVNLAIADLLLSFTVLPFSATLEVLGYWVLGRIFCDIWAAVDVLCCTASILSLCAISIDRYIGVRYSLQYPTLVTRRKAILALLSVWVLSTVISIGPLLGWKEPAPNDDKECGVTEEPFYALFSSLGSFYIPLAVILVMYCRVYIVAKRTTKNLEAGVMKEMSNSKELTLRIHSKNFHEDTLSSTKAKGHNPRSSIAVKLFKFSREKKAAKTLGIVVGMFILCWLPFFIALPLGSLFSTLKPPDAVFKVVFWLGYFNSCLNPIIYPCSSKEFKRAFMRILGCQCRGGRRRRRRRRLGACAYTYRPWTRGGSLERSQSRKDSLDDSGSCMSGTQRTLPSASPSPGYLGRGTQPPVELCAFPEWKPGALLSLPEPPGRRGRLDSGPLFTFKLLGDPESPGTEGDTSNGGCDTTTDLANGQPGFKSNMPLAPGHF

[8] = DRUGMATRIX: Nicotinic Acetylcholine radioligand binding (ligand: [125I] Epibatidine); type: cell membranes, Membrane; details: imr-32; Not Active = under 50% inhibition at 10 µM

O=C(O)CCCCC1CCSS1 (stereo not drawn) [LIPOIC ACID, ALPHA]
Not Active: IC50 [1] | Ki [1] | IC50 (Glucocorticoid receptor) | IC50 [2] | Ki [2] | IC50 [3] | Ki [3] | IC50 [4] | Ki [4] | IC50 [5] | Ki [5] | IC50 [6] | Ki [6] | IC50 [7] | IC50 [8] | Ki [8]

COC(=O)[C@H]1[C@H]2C[C@@H]3c4[nH]c5cc(OC)ccc5c4CCN3C[C@H]2C[C@@H](OC(=O)c2cc(OC)c(OC)c(OC)c2)[C@@H]1OC [RESERPINE]
Not Active: IC50 [1] | Ki [1] | IC50 (Glucocorticoid receptor) | IC50 [2] | Ki [2] | IC50 [3] | Ki [3] | IC50 [4] | Ki [4] | IC50 [5] | Ki [5] | IC50 [6] | Ki [6] | IC50 [7] | IC50 [8] | Ki [8]

CC1CCC(NC(=O)N(CCCl)N=O)CC1 (stereo not drawn) [SEMUSTINE]
Not Active: IC50 [1] | Ki [1] | IC50 (Glucocorticoid receptor) | IC50 [2] | Ki [2] | IC50 [3] | Ki [3] | IC50 [4] | Ki [4] | IC50 [5] | Ki [5] | IC50 [6] | Ki [6] | IC50 [7] | IC50 [8] | Ki [8]

C[N+](C)(C)CCOC(=O)CCC(=O)OCC[N+](C)(C)C.[Cl-].[Cl-] [SUCCINYLCHOLINE CHLORIDE]
Not Active: IC50 [1] | Ki [1] | IC50 (Glucocorticoid receptor) | IC50 [2] | Ki [2] | IC50 [3] | Ki [3] | IC50 [4] | Ki [4] | IC50 [5] | Ki [5] | IC50 [6] | Ki [6] | IC50 [7] | IC50 [8] | Ki [8]

Nc1ccc(S(=O)(=O)NC(=O)c2ccccc2)cc1 [SULFABENZAMIDE]
Not Active: IC50 [1] | Ki [1] | IC50 (Glucocorticoid receptor) | IC50 [2] | Ki [2] | IC50 [3] | Ki [3] | IC50 [4] | Ki [4] | IC50 [5] | Ki [5] | IC50 [6] | Ki [6] | IC50 [7] | IC50 [8] | Ki [8]

CC(=O)OCC(COC(C)=O)OC(C)=O [TRIACETIN]
Not Active: IC50 [1] | Ki [1] | IC50 (Glucocorticoid receptor) | IC50 [2] | Ki [2] | IC50 [3] | Ki [3] | IC50 [4] | Ki [4] | IC50 [5] | Ki [5] | IC50 [6] | Ki [6] | IC50 [7] | IC50 [8] | Ki [8]

CN1CCN(CCCN2c3ccccc3Sc3ccc(C(F)(F)F)cc32)CC1 [TRIFLUOPERAZINE]
Not Active: IC50 [1] | Ki [1] | IC50 (Glucocorticoid receptor) | IC50 [2] | Ki [2] | IC50 [3] | Ki [3] | IC50 [4] | Ki [4] | IC50 [5] | Ki [5] | IC50 [6] | Ki [6] | IC50 [7] | IC50 [8] | Ki [8]

TRANSPLATIN
Not Active: IC50 [1] | Ki [1] | IC50 (Glucocorticoid receptor) | Ki (Glucocorticoid receptor) | IC50 [2] | Ki [2] | IC50 [3] | Ki [3] | IC50 [4] | Ki [4] | IC50 [5] | Ki [5] | IC50 [6] | Ki [6] | IC50 [7] | Ki [7] | IC50 [8] | Ki [8]

ZIRCONIUM(IV) CHLORIDE
Not Active: IC50 [1] | Ki [1] | IC50 (Glucocorticoid receptor) | Ki (Glucocorticoid receptor) | IC50 [2] | Ki [2] | IC50 [3] | Ki [3] | IC50 [4] | Ki [4] | IC50 [5] | Ki [5] | IC50 [6] | Ki [6] | IC50 [7] | Ki [7] | IC50 [8] | Ki [8]
